Data from ChEMBL document CHEMBL4622928, “Discovery of 5-(4-methylpiperazin-1-yl)-2-nitroaniline derivatives as a new class of SIRT6 inhibitors” (Bioorg Med Chem Lett, 2020).

Target: NAD-dependent protein deacylase sirtuin-6 (Homo sapiens, UniProt Q8N6T7)
Experiment: Inhibition of SIRT6 (unknown origin) using Ac-RYQK(Ac)-AMC as substrate by Fluor de Lys assay

Chain of NAD-dependent protein deacylase sirtuin-6 (Q8N6T7 whole entry): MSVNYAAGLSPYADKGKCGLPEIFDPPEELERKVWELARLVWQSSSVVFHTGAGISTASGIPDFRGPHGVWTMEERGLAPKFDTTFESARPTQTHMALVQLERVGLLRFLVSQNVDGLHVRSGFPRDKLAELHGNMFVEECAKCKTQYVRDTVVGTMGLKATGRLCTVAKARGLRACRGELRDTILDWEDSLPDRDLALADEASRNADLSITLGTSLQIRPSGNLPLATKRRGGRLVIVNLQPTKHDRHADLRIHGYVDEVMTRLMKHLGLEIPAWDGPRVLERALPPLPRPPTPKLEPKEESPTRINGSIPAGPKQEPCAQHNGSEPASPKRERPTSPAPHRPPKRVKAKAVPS

Row | SMILES | IC50
1 | CN1CCN(c2ccc([N+](=O)[O-])c(C(=O)Nc3cccc4ccccc34)c2)CC1 | 16.8 µM
2 | CN1CCN(c2ccc([N+](=O)[O-])c(NCc3ccccc3)c2)CC1 | 12.5 µM
3 | CN1CCN(c2ccc([N+](=O)[O-])c(O)c2)CC1 | 11 µM
4 | CN1CCN(c2ccc([N+](=O)[O-])c(C(=O)Nc3ccc(Oc4ccccc4)cc3)c2)CC1 | 20.9 µM
5 | CN1CCN(c2ccc([N+](=O)[O-])cc2)CC1 | 21.9 µM
6 | COC(=O)c1cc(N2CCN(C)CC2)ccc1[N+](=O)[O-] | 9.46 µM
7 | COc1cc(N2CCN(C)CC2)ccc1[N+](=O)[O-] | 9.09 µM
8 | CN1CCN(c2ccc([N+](=O)[O-])c(C(F)(F)F)c2)CC1 | 21.1 µM
9 | CN1CCN(c2ccc([N+](=O)[O-])c(NC(=O)c3cc(Cl)nc4ccccc34)c2)CC1 | 12.4 µM
10 | CN1CCN(c2ccc([N+](=O)[O-])c(C(=O)NCc3ccccc3)c2)CC1 | 17.5 µM
